In assay [1] the test system is RANTES-induced chemotaxis. Kind of assay: RANTES-/MIP1α-induced chemotaxis (ChemoTx transwell). The format is cell-based. The following applies: RANTES per text, 25 ng/ml MIP1α per Fig 2f legend; 5 × 10^4 cells per well; 2 h, 37°C; MTT; triplicate. How it is done:
Figure 2 Effect of Peptide 3 on gp120:V3 loop peptide binding to cells. (a) The binding of 100 μM N-terminal biotinylated gp120:V3(IIIb) to THP-1 cells was measured in the presence of various concentrations of peptide 3. In each case, the non-specific binding (in the presence of 10 mM unlabelled gp120:V3 loop peptide) has been subtracted. (b) Chemotaxis in response to 100 ng/ml SDF1α was measured in the presence of various concentrations of peptide 3. […] (e) As for (a) except that the effect of Peptide 3 on the binding of gp120:V3(BaL) to THP-1 cells was determined. (f) As for (b) except that the effect of Peptide 3 on chemotaxis induced by 25 ng/ml MIP1α was determined. All binding reactions were performed with 10^6 cells in 100 μl of binding medium at 4°C. Chemotaxis assays were performed with 5 × 10^4 cells per well. Values are mean ± SEM of triplicate determinations.
Chemotaxis experiments were performed essentially as previously described, using the ChemoTx disposable 96-well transwell migration plates, with PVP-free membrane (6 μm pore size). […] The number of cells which had migrated to the lower compartment was determined using the vital dye MTT and interpolation of a standard curve. Each condition was determined in triplicate, and the number of cells migrating in the absence of chemoattractant was subtracted to determine the chemokine-dependent chemotaxis which was reported.

The next assay relates to HIV (IIIb). Kind of assay: HIV (IIIb) replication in Jurkat T-cells, supernatant reverse transcriptase activity. The settings on record: HIV-1 IIIb 10^6 TCID50; Peptide 3 100 μM; two weeks; six separate experiments. Format: cell-based. How it is done: HIV infection of Jurkat T-cells using the laboratory-adapted T-tropic isolate IIIb was monitored using two different assays. Firstly, Jurkat T-cells in 96-well plates were pre-treated with either Peptide 3, vehicle (as a negative control) or SDF1α (as a positive control) for 4 hours, then exposed to HIV virus (10^6 TCID50) and pulsed at 2–3 day intervals with Peptide 3, SDF1α or medium alone as appropriate. After two weeks in culture, the extent of viral infection was assayed by measuring the reverse transcriptase activity in the supernatant, as a measure of viral replication in the culture In six separate experiments, Peptide 3 (100 μM) had no effect on virus replication following HIV exposure (Fig 3a), while SDF1α inhibited reverse transcriptase activity by an average of 75%. No effect was seen on cell viability under any of the treatment conditions.
HIV-1 stocks were prepared in the following manner. HIV-1 IIIb (provided by the MRC AIDS Reagent Programme) was used to infect Jurkat T cells and the progression of infection was monitored using the reverse transcriptase assay for 10–14 days. […] Stocks of HIV-1 MN strain were prepared in a similar manner, except that H9 T cells were used and the progression of infection was monitored by immunofluoresence (because of the low RT activity) in this strain. […]

In another assay the test system is CCR5. In words: Specific binding of biotinylated gp120:V3(BaL) peptide to THP-1 cells. The settings on record: 100 μM biotinylated gp120:V3(BaL); various concentrations of Peptide 3; 10^6 cells in 100 μl, 4°C; non-specific binding (10 mM unlabelled peptide) subtracted. The protocol:
The binding of gp120 to chemokine receptors is likely to involve sequences in the V3 loop of gp120 [28, 20]. We therefore synthesised peptide sequences from the V3 loop of the M-tropic BaL strain and the T-tropic IIIb strain and analysed the binding of these biotinylated peptides to the THP-1 and Jurkat cells. Specific (competable) binding of gp120:V3(BaL) to THP-1 cells was detected at 100 μM (Fig 1a). In contrast, specific binding of gp120:V3(BaL) to Jurkat cells was not detected even at concentrations up to 500 μM (Fig 1a). […]
Figure 1 Specific binding of gp120:V3 loop peptides to THP-1 and Jurkat cells. […] Specific binding is expressed as the absorbance in the absence of unlabelled peptide minus the absorbance in the presence of competitor (b) Binding of gp120:V3(IIIb)-biotin under the same conditions as in (a). […]
Cells (either Jurkat T-cells or THP-1 cells) were grown in RPMI 1640 medium supplemented with 10% fetal calf serum, 2 mM glutamine, 20 μM β-mercaptoethanol, 100 U/ml penicillin and 100 μg/ml streptomycin and maintained between 2 × 10^5 and 1 × 10^6 cells/ml. […] The plate was spun (3,000 × g; 3 mins) and 200 μl of the coloured product was transferred to an empty 96-well ELISA plate and the absorbance at 450 nm determined.

“Also recorded” adds a separate entry of the source.

One sequence from article PMC1082716, “Blockade of chemokine-induced signalling inhibits CCR5-dependent HIV infection in vitro without blocking gp120/CCR5 interaction” (Retrovirology, 2005) can be followed below.

As for EICADPKQKWVQ [Peptide 3], in assay [1], the “Effect on RANTES-induced chemotaxis” value is “powerfully inhibited; also recorded: profoundly blocked”. Further, the “Effect on virus replication following HIV exposure (reverse transcriptase activity)” value in the assay on HIV (IIIb) is “no effect”. Moreover, in the assay on CCR5, the “Effect on gp120 binding to CCR5 (gp120:V3(BaL) to THP-1 cells)” value was “no effect; also recorded: unaffected”.
